Here are results for four molecules from PMC7924852, “The Emericellipsins A–E from an Alkalophilic Fungus Emericellopsis alkalina Show Potent Activity against Multidrug-Resistant Pathogenic Fungi” (Journal of Fungi, 2021).

In brackets after ≈: the same amount, converted by molar mass.

Experiment [1] deals with A. fumigatus 390 m. The experiment in a line: Broth two-fold microdilution MIC (CLSI). The format is cell-based, Aspergillus fumigatus. The settings on record: 48 h; for Minimal Inhibitory Concentration (MIC): A. fumigatus 390 m clinical isolate, RPMI 1640 pH 7.0, 35 °C. For orientation: Broth dilution looks for growth in wells or tubes with falling amounts of substance.
Experiment [2] relates to A. fumigatus VKM F-37. The experiment in a line: Disc-diffusion antifungal assay. The format is cell-based, Aspergillus fumigatus. The note with it: for Zone of Inhibition: 40 µg/disc. (Agar diffusion results depend on both activity and mobility in agar.)
The test system of experiment [3] is A. terreus 497. The experiment in a line: Broth two-fold microdilution MIC (CLSI). Format: cell-based. The note with it: for Minimal Inhibitory Concentration (MIC): A. terreus 497 clinical isolate, RPMI 1640 pH 7.0, 35 °C, 48 h.
Experiment [4] concerns reference and clinical strains of Aspergillus. The experiment is described as follows: Disc-diffusion antifungal assay, Aspergillus strains. The format is cell-based. The note with it: for antifungal activity against Aspergillus strains (in words): disc-diffusion, reference and clinical strains of Aspergillus.
The subject of experiment [5] is A. terreus 3 K. The experiment in a line: Broth two-fold microdilution MIC (CLSI). The format is cell-based. The settings on record: 48 h; for Minimal Inhibitory Concentration (MIC): A. terreus 3 K, RPMI 1640 pH 7.0, 35 °C.
For experiment [6], the system named is A. fumigatus VKM F-37. The experiment in a line: Broth two-fold microdilution MIC (CLSI). The settings on record: for Minimal Inhibitory Concentration (MIC): A. fumigatus VKM F-37, RPMI 1640 pH 7.0, 35 °C, 48 h. Format: cell-based, Aspergillus fumigatus.
Experiment [7] has as its system A. fumigatus 390 m. The experiment is described as follows: Disc-diffusion antifungal assay. Format: cell-based, Aspergillus fumigatus. The settings on record: pathogenic clinical isolate; for Zone of Inhibition: 40 µg/disc.
For experiment [8], the system named is A. niger 1133 m. The experiment in a line: Broth two-fold microdilution MIC (CLSI). The format is cell-based, Aspergillus niger. The settings on record: 48 h; for Minimal Inhibitory Concentration (MIC): A. niger 1133 m clinical isolate, RPMI 1640 pH 7.0, 35 °C.
The test system of experiment [9] is Aspergillus niger ATCC 16404. The experiment in a line: Disc-diffusion antifungal assay. The format is cell-based. The note with it: for Zone of Inhibition: 40 µg/disc, A. niger ATCC 16404.
In experiment [10] the test system is A. terreus 3 K. The experiment is described as follows: Disc-diffusion antifungal assay. The format is cell-based. The settings on record: for Zone of Inhibition: 40 µg/disc.
Experiment [11] has as its system A. niger ATCC 16404. The experiment is described as follows: Broth two-fold microdilution MIC (CLSI). The settings on record: for Minimal Inhibitory Concentration (MIC): A. niger ATCC 16404, RPMI 1640 pH 7.0, 35 °C, 48 h, no visible growth. The format is cell-based, Aspergillus niger.
Experiment [12] has as its system isolates of Aspergillus spp. The experiment is described as follows: Broth microdilution MIC, ranges over mould isolates. Format: cell-based. The settings on record: range over opportunistic and clinical isolates of Aspergillus spp. (Table 4).
For experiment [13], the system named is A. niger 1133 m. The experiment in a line: Disc-diffusion antifungal assay. Format: cell-based, Aspergillus niger. The note with it: pathogenic clinical isolate; for Zone of Inhibition: 40 µg/disc.
Experiment [14] relates to A. terreus 497. The experiment is described as follows: Disc-diffusion antifungal assay. The format is cell-based. The settings on record: A. terreus 497, pathogenic clinical isolate; for Zone of Inhibition: 40 µg/disc.
Experiment [15] relates to C. krusei 1447. The experiment in a line: Sensititre YeastOne antifungal susceptibility test. Format: cell-based. The note with it: Pichia kudriavzevii, 1447.
For experiment [16], the system named is A. terreus 497. The experiment in a line: Sensititre YeastOne antifungal susceptibility test. Format: cell-based. The settings on record: Sensititre YeastOne; A. terreus 497.
Experiment [17] relates to A. fumigatus 390m. The experiment in a line: Sensititre YeastOne antifungal susceptibility test. Format: cell-based. The settings on record: Aspergillus fumigatus, 390M.
Experiment [18] has as its system Cr. laurentii 325m. The experiment in a line: Sensititre YeastOne antifungal susceptibility test. Format: cell-based. The settings on record: Papiliotrema laurentii, 325M.
The subject of experiment [19] is C. parapsilosis 571. The experiment in a line: Broth microdilution MIC and MFC (CLSI). The format is cell-based.
The test system of experiment [20] is C. glabrata 1402. The experiment is described as follows: Sensititre YeastOne antifungal susceptibility test. The format is cell-based. The settings on record: Nakaseomyces glabratus, 1402.
For experiment [21], the system named is C. tropicalis 156. The experiment is described as follows: Sensititre YeastOne antifungal susceptibility test. Format: cell-based. The note with it: Candida tropicalis, 156.
Experiment [22] deals with C. parapsilosis 571. The experiment is described as follows: Sensititre YeastOne antifungal susceptibility test. Format: cell-based. The settings on record: Lodderomyces parapsilosis, 571.
The subject of experiment [23] is Candida albicans 1402. The experiment is described as follows: Broth microdilution MIC and MFC (CLSI). Format: cell-based.
Experiment [24] concerns Candida albicans 1402. The experiment in a line: Sensititre YeastOne antifungal susceptibility test. Format: cell-based. The settings on record: Candida albicans, 1402.
For experiment [25], the system named is Cryptococcus neoformans 297. The experiment is described as follows: Sensititre YeastOne antifungal susceptibility test. The settings on record: Cryptococcus neoformans, 297. The format is cell-based.
The subject of experiment [26] is C. krusei 1447. The experiment is described as follows: Broth microdilution MIC and MFC (CLSI). Format: cell-based.
Experiment [27] concerns C. tropicalis 156. The experiment in a line: Broth microdilution MIC and MFC (CLSI). Format: cell-based.
Experiment [28] has as its system clinical isolates of Candida. The experiment in a line: Disc-diffusion antifungal assay, clinical yeast isolates. The format is cell-based. The settings on record: range over clinical isolates of Candida (Figure S2).
Experiment [29] concerns Aspergillus niger 1133m. The experiment in a line: Sensititre YeastOne antifungal susceptibility test. The format is cell-based. The note with it: Aspergillus niger, 1133M.
Experiment [30] deals with Cryptococcus neoformans 297. The experiment is described as follows: Broth microdilution MIC and MFC (CLSI). Format: cell-based.
Experiment [31] deals with C. glabrata 1402. The experiment in a line: Broth microdilution MIC and MFC (CLSI). Format: cell-based.
The subject of experiment [32] is C. laurentii 325m. The experiment is described as follows: Broth microdilution MIC and MFC (CLSI). The format is cell-based, Cr. laurentii. The settings on record: Papiliotrema laurentii.

Turning to “Methyldecanoyl-MePro-AHMOD-Ala-Iva-Ile-Iva-βAla-Alaol-Glyol [EmiD, emericellipsin D, homologue of emericellipsin A, nonribosomal peptaibol]”, the “Minimal Inhibitory Concentration (MIC)” value in [1] was 32 µg/mL; in experiment [3], 16 µg/mL; in [5], 16 µg/mL; in [6] it was 32 µg/mL; in experiment [8] it was “˃64 µg/mL”; in experiment [11], “˃64 µg/mL”. For the same molecule, the “Zone of Inhibition” value in experiment [2], in experiment [7], in experiment [9], in experiment [10], in [13] and in experiment [14] was 0 mm each time. Also, in [4], the “antifungal activity against Aspergillus strains (in words)” value (“antifungal activity” for short) is “totally inactive”. Besides, the MIC range in experiment [12] fell in the range of 16 to 32 µg/mL.

With `C[C@@H]1[C@H](O)[C@@H](C)/C=C/C=C/C=C/C=C/C=C/C=C/C=C/[C@H](O[C@@H]2O[C@H](C)[C@@H](O)[C@H](N)[C@@H]2O)C[C@@H]2O[C@](O)(C[C@@H](O)C[C@@H](O)[C@H](O)CC[C@@H](O)C[C@@H](O)CC(=O)O[C@H]1C)C[C@H](O)[C@H]2C(=O)O` [AmpB, Amphotericin B], the MIC in experiment [15] is 2 µg/mL (≈ 2.16 µM); in experiment [1] (Aspergillus fumigatus, 390M, pH 7, read-out: Minimal Inhibitory Concentration (MIC)), 1 µg/mL (≈ 1.08 µM); in [3] (Aspergillus terreus, 497, 48 h, pH 7, read-out: Minimal Inhibitory Concentration (MIC)) it was > 64 µg/mL; in experiment [17], 1 µg/mL (≈ 1.08 µM); in experiment [18], 0.5 µg/mL (≈ 0.541 µM); in [5] (Aspergillus terreus, 3K, pH 7, read-out: Minimal Inhibitory Concentration (MIC)) it was > 64 µg/mL. For the same molecule, the MIC is 1 µg/mL (≈ 1.08 µM) in [6] (Aspergillus fumigatus, VKMF37, 48 h, pH 7, read-out: Minimal Inhibitory Concentration (MIC)); 1 µg/mL (≈ 1.08 µM) in experiment [19] (Lodderomyces parapsilosis, 571, 24 h, pH 7); 1 µg/mL (≈ 1.08 µM) in experiment [20]; 0.5 µg/mL (≈ 0.541 µM) in experiment [21]; 1 µg/mL (≈ 1.08 µM) in [8] (Aspergillus niger, 1133M, pH 7, read-out: Minimal Inhibitory Concentration (MIC)); 1 µg/mL (≈ 1.08 µM) in experiment [22]. Moreover, the MIC in experiment [23] (Candida albicans 1402 clinical isolate, RPMI 1640 pH 7.0, 35 °C, 24 h, read-out: MIC) was determined as 0.5 µg/mL (≈ 0.541 µM); in [24], 0.5 µg/mL (≈ 0.541 µM); in [25], 1 µg/mL (≈ 1.08 µM); in experiment [26] (Pichia kudriavzevii, 1447, 24 h, pH 7), 2 µg/mL (≈ 2.16 µM); in experiment [11] (Aspergillus niger, ATCC16404, 48 h, pH 7, read-out: Minimal Inhibitory Concentration (MIC)) it was 1 µg/mL (≈ 1.08 µM); in experiment [27] (Candida tropicalis, 156, 24 h, pH 7), 0.5 µg/mL (≈ 0.541 µM). Moreover, the MIC in [29] worked out at 1 µg/mL (≈ 1.08 µM); in experiment [30] (Cryptococcus neoformans, 297, 24 h, pH 7), 0.5 µg/mL (≈ 0.541 µM); in experiment [31] (Nakaseomyces glabratus, 1402, 24 h, pH 7), 1 µg/mL (≈ 1.08 µM); in [32] (325M, 24 h, pH 7), 0.25 µg/mL (≈ 0.271 µM). For the same molecule, the “MIC (class symbol)” value in [16] is “R”. Besides, the zone of inhibition (as a rule, the size of the clear area around the sample on an inoculated plate) at 40 µg/disc in experiment [2] (Aspergillus fumigatus, VKMF37) amounted to 12 ± 0.23 mm; in [7] (Aspergillus fumigatus) it was 15 ± 0.51 mm; in experiment [9] (Aspergillus niger, ATCC16404, A. niger ATCC 16404), 0 mm; in [10] (Aspergillus terreus), 0 mm; in experiment [13] (Aspergillus niger) it was 10 ± 0.14 mm; in [14] (Aspergillus terreus), 0 mm. For the same molecule, the inhibition zones in experiment [4] (range over clinical isolates of Aspergillus (Figure S2)) is 15–17 mm; in [28], 10–12 mm. The MFC in experiment [19] (Lodderomyces parapsilosis, C. parapsilosis 571, lowest concentration causing 95% death, read-out: MFC) was found to be 1 µg/mL (≈ 1.08 µM); in [23] (Candida albicans 1402, lowest concentration causing 95% death, plated on PDA agar, read-out: MFC) it was 0.5 µg/mL (≈ 0.541 µM); in experiment [26] (Pichia kudriavzevii, C. krusei 1447, lowest concentration causing 95% death, read-out: MFC) it was 4 µg/mL (≈ 4.33 µM); in experiment [27] (Candida tropicalis, C. tropicalis 156, lowest concentration causing 95% death, read-out: MFC) it was 1 µg/mL (≈ 1.08 µM); in [30] (Cryptococcus neoformans 297, lowest concentration causing 95% death, read-out: MFC) it was 1 µg/mL (≈ 1.08 µM); in [31] (Nakaseomyces glabratus, C. glabrata 1402, lowest concentration causing 95% death, read-out: MFC), 1 µg/mL (≈ 1.08 µM). The MFC in experiment [32] (C. laurentii 325m, lowest concentration causing 95% death, read-out: MFC) was determined as 0.5 µg/mL (≈ 0.541 µM).

With “Methyldecanoyl-MePro-AHMOD-Ala-Aib-Ile-Aib-βAla-Alaol-Glyol [EmiB, emericellipsin B, homologue of emericellipsin A, nonribosomal peptaibol]”, the “Minimal Inhibitory Concentration (MIC)” value in experiment [1] amounted to 8 µg/mL; in experiment [3], 4 µg/mL; in experiment [5], 4 µg/mL; in [6] it was 8 µg/mL; in experiment [8], 8 µg/mL; in experiment [11] it was 8 µg/mL. Moreover, the “Zone of Inhibition” value in experiment [2] stood at 0 mm; in experiment [7], 0 mm; in [9], 10 ± 0.13 mm; in [10], 0 mm; in experiment [13], 11 ± 0.170 mm; in [14], 0 mm. Moreover, the “antifungal activity” value in [4] was “low activity only against A. niger strains”. This molecule also displayed an MIC range in [12] of 4 to 8 µg/mL.

As to “Methyldecanoyl-MePro-AHMOD-Ala-Aib-Ile-Iva-βAla-Aib-Glyol [EmiE, emericellipsin E, homologue of emericellipsin A, nonribosomal peptaibol]”, the “Minimal Inhibitory Concentration (MIC)” value in [1] is “˃64 µg/mL”; in experiment [3], 64 µg/mL; in experiment [5], 32 µg/mL; in [6], “˃64 µg/mL”; in [8], “˃64 µg/mL”; in experiment [11], “˃64 µg/mL”. For the same molecule, the “Zone of Inhibition” value in [2], in experiment [7], in [9], in experiment [10], in experiment [13] and in experiment [14] was 0 mm throughout. Further, the “antifungal activity” value in [4] was “totally inactive”. Besides, the MIC range in [12] is listed as > 64 µg/mL.
